From paper PMC8002823, “Synthesis and Structure–Activity Relationships of Aristoyagonine Derivatives as Brd4 Bromodomain Inhibitors with X-ray Co-Crystal Research” (Molecules, 2021)
“And” between values parts separate entries of the source, which are not always exact repeats. Equal entries are not always repeated.

What was measured:
Brd4 bromodomain = target: T1, Brd4 bromodomain (Homo sapiens, UniProt O60885); test: Alpha-screen enzyme assay (bromodomain binding to acetylated histone peptide); settings: for IC50 / inhibitory activity against Brd4 bromodomain (in words): alpha-screen assay; for IC50: inhibition of bromodomain binding activity, calculated with Prism6;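 for all read-outs here: AlphaScreen proximity readout pairing streptavidin donor beads with anti-GST acceptor beads, with hits checked against bead interference using a TruHit control kit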
T1 construct: glutathione-S-transferase (GST) and His-tagged bromodomain; made in house
Protocol: Bromodomain was prepared as previously described. […] Streptavidin-coated donor beads and anti-GST alpha-screen acceptor beads were added under low-light condition. […] The alpha-screen results were confirmed by using alpha-screen TruHit kits (PerkinElmer, USA).

Ty82 cells = test: Cell cytotoxic assay in Ty82 cells; format: cell-based; settings: Homo sapiens; for CC50: Ty82 cell cytotoxic activity, 72 h
Protocol: For the viability experiments, Ty82 cells were seeded in 96-well plates at 30% confluency and exposed to chemicals the next day. After 72 h, WST-1 reagent was added, and absorbance at 450 nm was measured by using a Spectramax spectrophotometer (Molecular Devices, San Jose, CA, USA) in accordance with the manufacturer’s instructions. The CC50 values were calculated by using GraphPad Prism version 5 for Windows. The curves were fitted using a nonlinear regression model with a log (inhibitor) versus response formula.

SMILES	melting point [°C]	IC50 (Brd4 bromodomain)	increase in activity compared with 8ae (Brd4 bromodomain; Brd4 IC50 ratio)	inhibitory activity against Brd4 bromodomain (in words) (Brd4 bromodomain)	CC50 (Ty82 cells) [nM]	IC50 (Ty82 cells; TY82, cell cytotoxic activity (Table 4 head prints IC50)) [nM]
COc1ccc2c(c1OCCCOc1ccccc1)Oc1c(OC)ccc3c1C(=C2)N(C)C3=O [Compound 8ad, 5,8-Dimethoxy-1-methyl-7-(3-phenoxypropoxy)benzo[6,7]oxepino[4,3,2-cd]isoindol-2(1H)-one]	189 to 191	7080 nM and 7070 nM	–	–	> 4000	–
CCOc1ccc2c3c1Oc1c(ccc(OC)c1OC)C=C3N(C)C2=O [Compound 8ae, 5-Ethoxy-7,8-dimethoxy-1-methylbenzo[6,7]oxepino[4,3,2-cd]isoindol-2(1H)-one]	219 to 220	4160 nM	–	slightly increased the inhibitory activity compared with 8af	–	–
COc1ccc2c3c1Oc1ccc(OCC(C)C)cc1C=C3N(C)C2=O [Compound 8ba, 9-Isobutoxy-5-methoxy-1-methylbenzo[6,7]oxepino[4,3,2-cd]isoindol-2(1H)-one]	–	16700 nM	–	–	–	–
COc1ccc2c3c1Oc1ccc(C(F)(F)F)cc1C=C3N(C)C2=O [Compound 8bb, 5-Methoxy-1-methyl-9-(trifluoromethyl)benzo[6,7]oxepino[4,3,2-cd]isoindol-2(1H)-one]	–	> 32000 nM	–	no inhibitory activity	> 20000	–
COc1ccc2c3c1Oc1ccc(OCc4ccccc4)cc1C=C3N(C)C2=O [Compound 8bg, 9-Benzyloxy-5-methoxy-1-methylbenzo[6,7]oxepino[4,3,2-cd]isoindol-2(1H)-one]	187 to 189	> 32000 nM	–	did not	–	–
COc1ccc2c3c1Oc1cc4c(cc1C=C3N(C)C2=O)OCO4 [Compound 8bh, 5-Methoxy-1-methyl-[1,3]dioxolo[4”,5”.4′,5′]benzo[1′,2′:6,7]oxepino[4,3,2-cd]isoindol-2(1H)-one]	237 to 239	11100 nM	–	modest inhibition	2160	–
CCOc1ccc2c3c1Oc1ccc(OCC(C)C)cc1C=C3N(C)C2=O [Compound 8bi, 9-Isobutoxy-5-ethoxy-1-methylbenzo[6,7]oxepino[4,3,2-cd]isoindol-2(1H)-one]	178 to 180	> 10000 nM	–	–	–	–
CCOc1ccc2c3c1Oc1ccc(C(F)(F)F)cc1C=C3N(C)C2=O [Compound 8bj, 5-Ethoxy-1-methyl-9-(trifluoromethyl)benzo[6,7]oxepino[4,3,2-cd]isoindol-2(1H)-one]	230 to 232	> 9000 nM	–	–	> 20000	–
CCOc1ccc2c3c1Oc1ccc(OCc4ccccc4)cc1C=C3N(C)C2=O [Compound 8bo]	198 to 200	–	–	–	–	–
CCN(CC)c1ccc2c3c1Oc1ccc(O)cc1C=C3N(C)C2=O [Compound 8cb, 5-(Diethylamino)-9-hydroxy-1-methylbenzo[6,7]oxepino[4,3,2-cd]isoindol-2(1H)-one]	181 to 183	4890 nM	–	weaker inhibitory effects than 8bd and 8bl	8000	–
CCN(CC)c1ccc2c3c1Oc1ccc(O)cc1CC3N(C)C2=O (centres unmarked) [Compound 8cc, 5-(Diethylamino)-9-hydroxy-1-methyl-11,11a-dihydrobenzo[6,7]oxepino[4,3,2-cd]isoindol-2(1H)-one]	165 to 167	5860 nM	–	–	10000	–
Cc1ccc2c3c1Oc1ccc(C(F)(F)F)cc1C=C3N(C)C2=O [Compound 8df, 1,5-Dimethyl-9-(trifluoromethyl)benzo[6,7]oxepino[4,3,2-cd]isoindol-2(1H)-one]	227 to 229	> 32000 nM	–	–	–	–

Further lines, with some results ahead:

melting point [°C]	IC50 (Brd4 bromodomain)	increase in activity compared with 8ae (Brd4 bromodomain; Brd4 IC50 ratio)	inhibitory activity against Brd4 bromodomain (in words) (Brd4 bromodomain)	SMILES	CC50 (Ty82 cells) [nM]	IC50 (Ty82 cells; TY82, cell cytotoxic activity (Table 4 head prints IC50)) [nM]
208 to 210	840 nM	–	–	COc1cccc2c1Oc1c(OC)ccc3c1C(=C2)N(C)C3=O [Compound 8aa, 5,7-Dimethoxy-1-methylbenzo[6,7]oxepino[4,3,2-cd]isoindol-2(1H)-one]	–	–
–	860 nM	four-fold increased activity	–	CCOc1c(OC)ccc2c1Oc1c(OC)ccc3c1C(=C2)N(C)C3=O [Compound 8ab, 7-Ethoxy-5,8-dimethoxy-1-methylbenzo[6,7]oxepino[4,3,2-cd]isoindol-2(1H)-one]	–	–
–	3740 nM	–	–	COc1ccc(CCOc2c(OC)ccc3c2Oc2c(OC)ccc4c2C(=C3)N(C)C4=O)cc1 [Compound 8ac, 5,8-Dimethoxy-7-(4-methoxyphenethoxy)-1-methylbenzo[6,7]oxepino[4,3,2-cd]isoindol-2(1H)-one]	> 20000	–
189 to 191	5330 nM	–	weak inhibitory effect	CCOc1ccc2c3c1Oc1c(ccc(OC)c1OCCc1ccc(OC)cc1)C=C3N(C)C2=O [Compound 8af, 5-Ethoxy-8-methoxy-7-(4-methoxyphenethoxy)-1-methylbenzo[6,7]oxepino[4,3,2-cd]isoindol-2(1H)-one]	> 4000	–
177 to 179	410 nM	–	–	COc1ccc2c3c1Oc1ccc(O)cc1C=C3N(C)C2=O [Compound 8bd, 9-Hydroxy-5-methoxy-1-methylbenzo[6,7]oxepino[4,3,2-cd]isoindol-2(1H)-one]	540	–
174 to 176	860 nM	–	–	CCN(CC)CCOc1ccc2c(c1)C=C1c3c(ccc(OC)c3O2)C(=O)N1C [Compound 8be, 9-(2-(Diethylamino)ethoxy)-5-methoxy-1-methylbenzo[6,7]oxepino[4,3,2-cd]isoindol-2(1H)-one]	560	–
176 to 178	910 nM	–	–	COc1ccc2c3c1Oc1ccc(OCc4ccccn4)cc1C=C3N(C)C2=O [Compound 8bf, 5-Methoxy-1-methyl-9-(pyridine-2-ylmethoxy)benzo[6,7]oxepino[4,3,2-cd]isoindol-2(1H)-one]	230	–
–	1120 nM	–	–	CCOc1ccc2c3c1Oc1ccc(O)cc1C=C3N(C)C2=O [Compound 8bl, 5-Ethoxy-9-hydroxy-1-methylbenzo[6,7]oxepino[4,3,2-cd]isoindol-2(1H)-one]	310	–
169 to 171	910 nM	–	–	CCOc1ccc2c3c1Oc1ccc(OCCN(CC)CC)cc1C=C3N(C)C2=O [Compound 8bm, 9-(2-(Diethylamino)ethoxy)-5-ethoxy-1-methylbenzo[6,7]oxepino[4,3,2-cd]isoindol-2(1H)-one]	660	–
188 to 190	680 nM	–	–	CCOc1ccc2c3c1Oc1ccc(OCc4ccccn4)cc1C=C3N(C)C2=O [Compound 8bn, 5-Ethoxy-1-methyl-9-(pyridine-2-ylmethoxy)benzo[6,7]oxepino[4,3,2-cd]isoindol-2(1H)-one]	360	–
207 to 209	2890 nM	–	modest inhibition	CCOc1ccc2c3c1Oc1cc4c(cc1C=C3N(C)C2=O)OCO4 [Compound 8bp, 5-Ethoxy-1-methyl-[1,3]dioxolo[4”,5”.4′,5′]benzo[1′,2′:6,7]oxepino[4,3,2-cd]isoindol-2(1H)-one]	3810	–
–	1370 nM	–	–	CCCc1ccc2c3c1Oc1ccc(OCc4ccccn4)cc1C=C3N(C)C2=O [Compound 8dc, 1-Methyl-5-propyl-9-(pyridine-2-ylmethoxy)benzo[6,7]oxepino[4,3,2-cd]isoindol-2(1H)-one]	–	1770
